Reference: patent US12226412B2, “Heteroaryl-ketone fused azadecalin glucocorticoid receptor modulators” (Corcept Therapeutics, Inc., priority 2012, dated 2025)
Like-named read-outs stand apart in the source and are kept apart here.

Key:
[1] = molecular target: T1, human recombinant GR (Homo sapiens, UniProt P04150); assay: Human glucocorticoid receptor (GR) fluorescence polarisation (FP) binding assay
T1 construct: purchased PanVera P2812
T1 sequence (P04150 1-777): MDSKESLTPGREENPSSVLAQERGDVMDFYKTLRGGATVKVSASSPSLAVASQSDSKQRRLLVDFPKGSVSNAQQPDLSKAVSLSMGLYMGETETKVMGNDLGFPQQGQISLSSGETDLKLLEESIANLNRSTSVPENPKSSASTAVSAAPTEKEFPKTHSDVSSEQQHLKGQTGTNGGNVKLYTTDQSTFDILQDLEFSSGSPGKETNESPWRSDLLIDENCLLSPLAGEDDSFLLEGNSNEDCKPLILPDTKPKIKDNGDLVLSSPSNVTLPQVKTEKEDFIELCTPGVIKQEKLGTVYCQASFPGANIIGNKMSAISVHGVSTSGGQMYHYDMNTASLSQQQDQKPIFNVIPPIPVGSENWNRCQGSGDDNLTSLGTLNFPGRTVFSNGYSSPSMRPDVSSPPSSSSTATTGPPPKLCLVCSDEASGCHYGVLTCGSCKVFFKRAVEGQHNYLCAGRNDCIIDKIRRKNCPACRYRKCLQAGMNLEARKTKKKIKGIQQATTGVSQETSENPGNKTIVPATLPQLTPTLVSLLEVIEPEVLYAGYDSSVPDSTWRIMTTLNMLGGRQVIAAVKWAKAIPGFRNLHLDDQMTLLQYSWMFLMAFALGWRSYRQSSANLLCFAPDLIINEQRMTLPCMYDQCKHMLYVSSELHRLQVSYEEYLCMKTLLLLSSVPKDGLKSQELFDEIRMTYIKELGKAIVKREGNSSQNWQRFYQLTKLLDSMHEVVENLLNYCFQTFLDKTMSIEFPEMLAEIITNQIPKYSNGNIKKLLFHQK
Procedure: Human Glucocorticoid Receptor (GR) Fluorescence Polarisation (FP) Binding Assay
The following is a description of a FP assay for measuring compound inhibition of labelled glucocorticoid binding to the human recombinant GR.
The binding affinity of test compounds was determined using a FP binding assay using human recombinant GR (PanVera P2812) and a fluorescent labelled glucocorticoid ligand (Fluorome GS Red) (PanVera P2894). The presence of inhibitors prevents the formation of a GS Red/GR complex resulting in a decrease in the measured polarisation value. The change in polarisation value in the presence of test compounds is used to calculate the binding affinity of the compound for GR.
This assay was performed in 384 well, black, round-bottom, polypropylene micro titre plates in a final volume of 20 μl. The assay contained 5 μl 1 nM GR (final concentration), 5 μl 0.5 nM Fluorome GS Red (final concentration) in the presence of 10 μl test compounds. Positive control wells (high polarisation) receive, 10 μl 2% (v: v) DMSO vehicle (1% (v/v) final concentration)+5 μl 1 nM GR and 5 μl 0.5 nM Fluorome GS Red. […] Assay blank background wells (used for normalisation) receive 15 μl 1× GS screening buffer+5 μl GR.
Compounds were prepared as solubilised solids at 10 mM in DMSO. On the day of assay, an 8 point half-log serial dilution (55 μl DMSO+25 μl compound solution) was prepared. A 1:50 dilution (1 μl compound solution+49 μl 1× GR screening buffer) was prepared for each compound. The compounds were prepared at 2× final assay concentration.
The plates were mixed and incubated for 4 hour at room temperature.
10× GR screening buffer (100 mM potassium phosphate pH 7.4, 200 mM Na2MoO4, 1 mM EDTA, 20% (v/v) DMSO). To prepare 1× GR screening buffer, combine 1 ml 10× GR screening buffer (PanVera P2814)+1 ml stabilising peptide (PanVera P2815)+7.95 ml 4° C. MQ water. Add 50 μl 1M DTT, vortex and place on ice until use.

[2] = tested on: induction of TAT by dexamethasone in HepG2 cells; assay: HepG2 tyrosine aminotransferase (TAT) assay; type: cell-based, human; conditions: HepG2 cells, challenge of 100 nM dexamethasone; Ki from IC50 by Cheng and Prusoff equation
Procedure: Example 21. HepG2 Tyrosine Aminotransferase (TAT) Assay
Glucocorticoid mediated activation of TAT occurs by transactivation of glucocorticoid response elements in the TAT promoter by glucocorticoid receptor agonist complex.
TAT activity was measured as outlined in the literature by A. Ali et al., J. Med. Chem., 2004, 47, 2441-2452.
HepG2 cells were cultured using MEME media supplemented with 10% (v/v) foetal bovine serum; 2 mM L-glutamine and 1% (v/v) NEAA at 37° C., 5%/95% (v/v) CO2/air. The HepG2 cells were counted and adjusted to yield a density of 0.125×10^6 cells/ml in RPMI 1640 without phenol red, 10% (v/v) charcoal stripped FBS, 2 mM L-glutamine and seeded at 25,000 cells/well in 200 μl into 96 well, sterile, tissue culture micro titre plates, and incubated at 37° C., 5% CO2 for 24 hours
Growth media was removed and replaced with assay media {RPMI 1640 without phenol red, 2 mM L-glutamine+10 μM forskolin}. […] Compounds were serially half log diluted in 100% (v/v) dimethylsupfoxide from a 10 mM stock.
HepG2 cells were then lysed with 30 μl of cell lysis buffer containing a protease inhibitor cocktail for 15 minutes at 4° C. 155 μl of substrate mixture was then added containing 5.4 mM Tyrosine sodium salt, 10.8 mM alpha ketoglutarate and 0.06 mM pyridoxal 5′ phosphate in 0.1M potassium phosphate buffer (pH 7.4). After 2 hours incubation at 37° C. the reaction was terminated by the addition of 15 μl of 10M aqueous potassium hydroxide solution, and the plates incubated for a further 30 minutes at 37° C. The TAT activity product was measured by absorbance at […].
[compound] and fitting the data to a 4 parameter logistic equation.

[3] = human recombinant GR, fluorescence polarisation binding assay, read-out: GR binding

| SMILES | Ki [1, 3] [nM] | Ki [1] [nM] | Ki [2] [nM] |
| --- | --- | --- | --- |
| Cc1ccccc1S(=O)(=O)N1CCC2=Cc3c(cnn3-c3ccc(F)cc3)C[C@]2(C(=O)c2ccccn2)C1 [Example 2C, (R)-(1-(4-fluorophenyl)-6-(o-tolylsulfonyl)-4,4a,5,6,7,8-hexahydro-1H-pyrazolo [3,4-g]isoquinolin-4a-yl)(pyridin-2-yl)methanone] |  | < 0.5 | < 20 |
| O=C(c1cscn1)[C@]12Cc3cnn(-c4ccc(F)cc4)c3C=C1CCN(S(=O)(=O)c1ccc(C(F)(F)F)cc1)C2 [Example 11, (R)-(1-(4-fluorophenyl)-6-((4-(trifluoromethyl)phenyl)sulfonyl)-4,4a,5,6,7,8-hexahydro-1H-pyrazolo[3,4-g]isoquinolin-4a-yl)(thiazol-4-yl)methanone] |  | < 0.5 | 20 to 100 |
| N#Cc1ccc(S(=O)(=O)N2CCC3=Cc4c(cnn4-c4ccc(F)cc4)C[C@]3(C(=O)c3ccccn3)C2)cc1 [Example 2Q, (R)-4-((1-(4-fluorophenyl)-4a-picolinoyl-4a,5,7,8-tetrahydro-1H-pyrazolo[3,4-g]isoquinolin-6 (4H)-yl)sulfonyl)benzonitrile] | < 0.5 |  | 20 to 100 |
| O=C(c1ncco1)[C@]12Cc3cnn(-c4ccc(F)cc4)c3C=C1CCN(S(=O)(=O)c1ccc(C(F)(F)F)cc1)C2 [Example 1F, (R)-(1-(4-fluorophenyl)-6-((4-(trifluoromethyl)phenyl)sulfonyl)-4,4a,5,6,7,8-hexahydro-1H-pyrazolo[3,4-g]isoquinolin-4a-yl)(oxazol-2-yl)methanone] | < 0.5 |  | 20 to 100 |
| CCn1cc(S(=O)(=O)N2CCC3=Cc4c(cnn4-c4ccc(F)cc4)C[C@]3(C(=O)c3cc(C(F)(F)F)ccn3)C2)cn1 [Example 15, (R)-(6-((1-ethyl-1H-pyrazol-4-yl)sulfonyl)-1-(4-fluorophenyl)-4,4a,5,6,7,8-hexahydro-1H-pyrazolo[3,4-g]isoquinolin-4a-yl)(4-(trifluoromethyl)pyridin-2-yl)methanone] | < 0.5 |  | < 20 |

More lines, main results first:

| Ki [1, 3] [nM] | SMILES | Ki [1] [nM] | Ki [2] [nM] |
| --- | --- | --- | --- |
| < 0.5 | CCCn1cc(S(=O)(=O)N2CCC3=Cc4c(cnn4-c4ccc(F)cc4)C[C@]3(C(=O)c3cscn3)C2)cn1 [Example 11CZ, (R)-(1-(4-fluorophenyl)-6-((1-propyl-1H-pyrazol-4-yl)sulfonyl)-4,4a,5,6,7,8-hexahydro-1H-pyrazolo[3,4-g]isoquinolin-4a-yl)(thiazol-4-yl)methanone] |  | < 20 |
| > 1 | Cc1cc(S(=O)(=O)N2CCC3=Cc4c(cnn4-c4ccc(F)cc4)C[C@]3(C(=O)c3ncc(C)s3)C2)n(C)n1 [Example 12U, (R)-(6-((1,3-dimethyl-1H-pyrazol-5-yl)sulfonyl)-1-(4-fluorophenyl)-4,4a,5,6,7,8-hexahydro-1H-pyrazolo[3,4-g]isoquinolin-4a-yl)(5-methylthiazol-2-yl)methanone] |  | 20 to 100 |
| < 0.5 | Cc1ccnc(C(=O)[C@]23Cc4cnn(-c5ccc(F)cc5)c4C=C2CCN(S(=O)(=O)c2ccc(F)c(C)c2)C3)c1 [Example 11AL, (R)-(6-((4-fluoro-3-methylphenyl)sulfonyl)-1-(4-fluorophenyl)-4,4a,5,6,7,8-hexahydro-1H-pyrazolo[3,4-g]isoquinolin-4a-yl)(4-methylpyridin-2-yl)methanone] |  | < 20 |
| < 0.5 | Cc1ccnc(C(=O)[C@]23Cc4cnn(-c5ccc(F)cc5)c4C=C2CCN(S(=O)(=O)c2ccn(C)n2)C3)c1 [Example 11AK, (R)-(1-(4-fluorophenyl)-6-((1-methyl-1H-pyrazol-3-yl)sulfonyl)-4,4a,5,6,7,8-hexahydro-1H-pyrazolo[3,4-g]isoquinolin-4a-yl)(4-methylpyridin-2-yl)methanone] |  | < 20 |
| < 0.5 | O=C(c1nccs1)[C@]12Cc3cnn(-c4ccc(F)cc4)c3C=C1CCN(S(=O)(=O)c1cncc(N3CCCC3)c1)C2 [Example 7A, (R)-(1-(4-fluorophenyl)-6-((5-(pyrrolidin-1-yl)pyridin-3-yl)sulfonyl)-4,4a,5,6,7,8-hexahydro-1H-pyrazolo[3,4-g]isoquinolin-4a-yl)(thiazol-2-yl)methanone] |  | 20 to 100 |
| < 0.5 | O=C(c1ccccn1)[C@]12Cc3cnn(-c4ccc(F)cc4)c3C=C1CCN(S(=O)(=O)c1cccc(OC(F)(F)F)c1)C2 [Example 11I, (R)-(1-(4-fluorophenyl)-6-((3-(trifluoromethoxy)phenyl)sulfonyl)-4,4a,5,6,7,8-hexahydro-1H-pyrazolo[3,4-g]isoquinolin-4a-yl)(pyridin-2-yl)methanone] |  | < 20 |
| < 0.5 | Cc1cnc(C(=O)[C@]23Cc4cnn(-c5ccc(F)cc5)c4C=C2CCN(S(=O)(=O)c2cccc(C(F)(F)F)c2)C3)s1 [Example 12L, (R)-(1-(4-fluorophenyl)-6-((3-(trifluoromethyl)phenyl)sulfonyl)-4,4a,5,6,7,8-hexahydro-1H-pyrazolo[3,4-g]isoquinolin-4a-yl)(5-methylthiazol-2-yl)methanone] |  | < 20 |
| < 0.5 | Cn1ncc(S(=O)(=O)N2CCC3=Cc4c(cnn4-c4ccc(F)cc4)C[C@]3(C(=O)c3nccs3)C2)n1 (single isomer, unassigned) [Example 12Z] |  | ≥ 100 |
| < 0.5 | CCCn1cc(S(=O)(=O)N2CCC3=Cc4c(cnn4-c4ccc(F)cc4)C[C@]3(C(=O)c3ccccn3)C2)nn1 [Example 11CP, (R)-(1-(4-fluorophenyl)-6-((1-propyl-1H-1,2,3-triazol-4-yl)sulfonyl)-4,4a,5,6,7,8-hexahydro-1H-pyrazolo[3,4-g]isoquinolin-4a-yl)(pyridin-2-yl)methanone] |  | < 20 |
| < 0.5 | COc1ccc(S(=O)(=O)N2CCC3=Cc4c(cnn4-c4ccc(F)cc4)C[C@]3(C(=O)c3ccccn3)C2)cc1Cl [Example 11C, (R)-(6-((3-chloro-4-methoxyphenyl)sulfonyl)-1-(4-fluorophenyl)-4,4a,5,6,7,8-hexahydro-1H-pyrazolo[3,4-g]isoquinolin-4a-yl)(pyridin-2-yl)methanone] |  | 20 to 100 |
